In PubChem BioAssay (NCI):
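Cultured in 96-well plates, cells were exposed to test compound for 48 hours across five concentrations. At the TGI there is no net growth.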

Key:
Experiment in all cases: DTP human tumour cell line panel, 48 h
ACHN renal = test system: ACHN renal
EKVX NSCLC = test system: EKVX NSCLC
RXF 393 renal = test system: RXF 393 renal
HOP-62 NSCLC = test system: HOP-62 NSCLC
SNB-75 CNS = test system: SNB-75 CNS
LOX IMVI melanoma = test system: LOX IMVI melanoma
DU-145 prostate = test system: DU-145 prostate
SK-MEL-28 melanoma = test system: SK-MEL-28 melanoma
BT-549 breast = test system: BT-549 breast
OVCAR-3 ovarian = test system: OVCAR-3 ovarian

Structure (SMILES) | TGI (ACHN renal) | TGI (EKVX NSCLC) | TGI (RXF 393 renal) | TGI (HOP-62 NSCLC) | TGI (SNB-75 CNS) | TGI (LOX IMVI melanoma) | TGI (DU-145 prostate) | TGI (SK-MEL-28 melanoma) | TGI (BT-549 breast) | TGI (OVCAR-3 ovarian)
O=C(Nc1ccccc1C(=O)NCCCO)/C(=C/c1ccccc1O)NC(=O)c1ccccc1 | 97.4 µM | > 100 µM | > 86.8 µM | > 56.5 µM | > 83.9 µM | > 100 µM | > 100 µM | > 100 µM | 55.7 µM | > 100 µM
NC(=O)c1cc2ccccc2o/c1=N/O | > 100 µM | > 100 µM | > 100 µM | > 100 µM | > 100 µM | > 100 µM | > 100 µM | > 100 µM | > 100 µM | > 100 µM
COCc1nc2c(OC)cc(-c3nc4ccc(N5CCN(C)CC5)cc4[nH]3)c(OC)c2[nH]1 | > 100 µM | > 100 µM | 51.9 µM | > 100 µM | > 100 µM | 34.8 µM | > 100 µM | > 100 µM | > 100 µM | 77.5 µM
Clc1ccc(OCc2nnc(CCCCCCCCc3nnc(COc4ccc(Cl)cc4)n3Nc3ccccc3)n2Nc2ccccc2)cc1 | > 93 µM | > 87.9 µM | 70.8 µM | > 100 µM | > 100 µM | 42.6 µM | > 80.9 µM | > 100 µM | 97.5 µM | 39.9 µM
Nc1ccc(S(=O)(=O)Nc2nc3ccccc3nc2N2CCCCC2)cc1 | > 100 µM | > 100 µM | > 100 µM | > 100 µM | > 100 µM | > 100 µM | > 100 µM | > 100 µM | > 100 µM | > 100 µM
C=c1c(OC)c(OC)c(O)c2c1=c1cc([N+](=O)[O-])cc(OC)c1=N2 | > 100 µM | > 100 µM | > 100 µM | > 100 µM | > 100 µM | > 100 µM | > 100 µM | > 100 µM | > 100 µM | > 100 µM
N#Cc1cc2c(cc1Cl)Sc1nccn1S2(=O)=O | 4.64 µM | 35.9 µM | 15.5 µM | 10.8 µM | 20.4 µM | 3.19 µM | 6.18 µM | 7.33 µM | 13 µM | 2.13 µM
CC(C)(C)c1cc(/C=C(\C#N)C(=O)NCCO)cc(C(C)(C)C)c1O | 76.5 µM | 70.4 µM | 57.6 µM | 49.6 µM | 72.4 µM | 53.9 µM | > 100 µM | 47.1 µM | 71.1 µM | 33.5 µM
